According to patent US9205135B2, “Podocyte pH modulation and uses thereof” (University of Miami, priority 2009, dated 2015):
Entries after “also recorded” stand apart in the source; their conditions may differ. Residues, ends and D or L forms follow the SMILES beside them. *: point of attachment. Cbz = O=C(OCc1ccccc1)*; CH2F = FC*

Experiments:
cathepsin B = details: cited from earlier work
cathepsin L = assay: Cathepsin L activity in cultured podocytes, CV-(FR)2 substrate; format: cell-based, mouse
Protocol: Subcellular sites of cathepsin L and cathepsin B activity in glomerular extracts were visualized by a fluorogenic substrate, CV-(FR)2, which emits light upon cleavage by cathepsin L or cathepsin B (Biomol).
Measurement of cathepsin L activity: Cathepsin L activities in cultured podocytes and in glomeruli was measured using CV-CatL detection kit (Biomol, Plymouth Meeting, Pa.) as described in the manufacturer's instructions. The fluorophore cresyl violet [CV-(FR)2] substrate becomes florescent after Cat L cleavage of the attached Phe-Arg groups. This substrate easily penetrates the cell membrane and the membranes of the internal cellular organelles, enabling the detection of cathepsin activity within living podocytes.

C57BL/6 mice = assay: LPS-induced proteinuria model in mice; format: in vivo, mouse; details: for glomerular pH (CMFDA fluorescence of isolated glomeruli): glutamine 0.75 mg/g
Protocol: Treatment of mice with glutamine increases podocyte pH and protects from LPS-induced proteinuria: In order to translate our in vitro findings into a kidney disease relevant model, we next utilized the LPS model in mice known to cause podocyte foot process effacement and proteinuria driven by induction of cytosolic cathepsin L (6). To this end, mice were either injected with only LPS or treated with high dose (0.75 mg/g) glutamine injection 10 min after LPS administration. We analyzed the relative alkalinity of glomeruli using isolated glomeruli that were incubated with green CMFDA. […] We also tested renal function and measured proteinuria in these mice. […] These effects were also visible on an ultrastructural level.
(§1) Immunohistochemistry and immunoelectron microscopy: For immunofluorescent labeling, sections were washed once with PBS and incubated with blocking solution (2% FCS, 2% BSA, 0.2% fish gelatin) for 30 min at room temperature before further incubation with the primary antibody for 1 h at room temperature. Antigen-antibody complexes were visualized with secondary antibodies conjugated with fluorochromes. Specimens were analyzed using a Zeiss confocal microscope (Germany). Ultrathin sections of the kidneys were examined with a Philips CM10 electron microscope (The Netherlands). The number of podocytic FPs was counted in 10 different areas of representative glomeruli. In each area, the number of FPs was calculated within a distance of 1 μm on the GBM (34).
Animals and treatments: All animal studies were performed under protocols approved by the University of Miami animal care and use committee. C57BL/6 mice were obtained from The Jackson Laboratory. The mouse model LPS-induced proteinuria was utilized as previously described (16). Glutamine (Invitrogen) is injected i.p. (0.75 mg/g mouse) 10 min after LPS ([…]) (Sigma Aldrich, St. Louis, Mo.) injection.

wt podocytes = assay: F-actin cytoskeleton staining of cultured podocytes; format: cell-based, mouse; details: wt podocytes after LPS treatment, glutamine in medium vs absent
Protocol: The absence of cathepsin L protected from LPS-mediated loss of F-actin.
(§2) Cells, antibodies, and standard techniques: Mouse podocyte cell lines (15) and HEK 293 cells (6) were grown as described previously. NIH 3T3 cells were cultured in Dulbecco's modified Eagle's minimal essential medium (Invitrogen, Carlsbad, Calif.) supplemented with 10% fetal calf serum (Invitrogen) and incubated in a humidified atmosphere of 95% air and 5% CO2 at 37° C. Antibody used for immunostaining are Alexa Fluor 594 phalloidin (Molecular Probes, Eugene, Oreg.). Subcellular fractionation was performed as described previously (6).
as §1

podocytes [1] = assay: Intracellular pH of cultured podocytes by CMFDA fluorescence; format: cell-based, mouse; details: glutamine present vs absent in culture medium; normal and α3 integrin deficient podocytes
Protocol: Podocyte pH was assessed with CMFDA—an indicator for pH. Higher green signal is consistent with a more alkaline cell. The presence of high glutamine levels in cell culture media alkalinizes the normal podocytes as well as podocytes that lack integrin α3β1 (genetic model cells for podocyte disease) (FIG. 3A). Both, LPS and PAN treatment stimulate cathepsin L activity in podocytes. Cathepsin L activity is lower in the presence of high glutamine in the cell culture media that in turn leads to a more alkaline podocyte cytosol (FIGS. 3B, 3C).
Modification of intracellular pH by glutamine: One of the key feature in podocyte injury that can be found in all three employed cellular podocyte models is the induction of cytosolic cathepsin L that in turn cleaves critical regulators of the podocyte microfilament system resulting in a reorganization of the podocyte actin cytoskeleton and proteinuria (6). In contrast to lysosomal cathepsin L, cytosolic cathepsin L is operating under non-acidic conditions. […] We used a fluorescent dye CMFDA (5-chloromethylfluorescein diacetate) that captures changes in intracellular pH by alterations in fluorescence (25). The more alkaline the pH, the more green fluorescence is detected (FIGS. 11a-c). […] Using CMFDA, the pH in control cells was determined at 7.1 and at 7.3 in α3 integrin-KO podocytes. […]

NIH 3T3 = assay: Glutamine uptake rate in NIH 3T3 cells; format: cell-based
Protocol: (§3) All together, these experiments discovered a uniform metabolic response for podocytes that are injured.
as §2

HEK293 = assay: Glutamine uptake rate in HEK293 cells; format: cell-based
Protocol: as §3, §2

podocytes [2] = assay: Glutamine uptake rate in cultured podocytes; format: cell-based, mouse; details: injury stimulus
Text: A podocyte metabolic model was constructed based on available databases as well as mRNA and protein expression data extracted from podocytes. The following podocyte culture models were employed: wildtype (control), LPS and PAN stimulated podocytes (inducible injury models) as well as podocytes with genetic deletion of the alpha3 gene (genetic disease model). All injury cultures increase the uptake of glutamine as well as gluconeogenic aminoacids. In addition, there is increasing ammonia production in diseased podocytes. These changes were predicted by the podocyte metabolic model and confirmed by measuring directly amino acids and ammonia (FIGS. 1A-1D).
Metabolic Flux Analysis emphasizes glutamine utilization pathways for podocyte function: We utilized cultured normal podocytes (control) (15) and three in vitro models for podocyte damage: i) podocytes with α3 integrin deletion (genetic model) (16); ii) podocytes treated with lipopolysaccharides (LPS, immunological model) (17); and iii) podocytes treated with puromycin aminonucleoside (PAN, toxic model) (18). […] Using the podocyte MFA network, we were able to extract podocyte aminoacid and glucose utilization (FIG. 10b-d) that was also independently measured in direct validation studies (data not shown). All analyzed modeling and experimentation data supported the notion that the aminoacid metabolism of podocytes is changed in disease. […]

O=C(NC(Cc1ccccc1)C(=O)NC(Cc1ccccc1)C(=O)CF)OCc1ccccc1 (stereo not drawn) [Z-FF-FMK, Z-Phe-Phe-FMK] (Cbz-Phe-Phe-CH2F; configuration not given here)
inhibition of cathepsin B (cathepsin B): does not inhibit

NC(=O)CC[C@H](N)C(=O)O [glutamine]
cathepsin L activity in podocytes (cathepsin L; high glutamine in cell culture media, LPS or PAN treated podocytes): lower
podocyte foot process effacement (electron microscopy) (C57BL/6 mice; LPS-treated mice with glutamine vs LPS only): protects; also recorded: decreased foot process effacement
glomerular pH (CMFDA fluorescence of isolated glomeruli) (C57BL/6 mice; LPS-treated mice): increase in CMFDA fluorescence; also recorded: glomerular alkalinization; also recorded: increased alkalinity
proteinuria (urinary protein/creatinine ratio) (C57BL/6 mice; LPS-treated mice, glutamine 0.75 mg/g i.p., 24 h): ameliorates; also recorded: significant lower
glomerular pH (CMFDA fluorescence of isolated glomeruli) (C57BL/6 mice; LPS-treated mice, listed as Glutamine): increase in CMFDA fluorescence
F-actin presence (wt podocytes): improved F-actin presence
podocyte cytosolic pH (CMFDA fluorescence) (podocytes [1]): alkalinizes; also recorded: more alkaline cytosolic pH

CN(C)c1ncnc2c1ncn2[C@@H]1O[C@H](CO)[C@@H](N)[C@H]1O [PAN, puromycin aminonucleoside]
cathepsin L activity in podocytes (cathepsin L; effect of the injury stimulus itself): stimulate
glutamine uptake rate (NIH 3T3): increasing glutamine uptake rate
glutamine uptake rate (HEK293): increasing glutamine uptake rate
glutamine uptake rate (podocytes [2]): stimulated
